According to patent US20230011571A1, “SMALL MOLECULE FURIN INHIBITORS FOR TREATING INFECTIOUS DISEASES” (BP Asset V, Inc., priority 2019, published 2023):

Columns and labels:
Assay type in all cases: cell-based
[1] = test system: Chikungunya virus (CHIKV); assay: microbe, parasite or virus in culture; conditions: Chikungunya virus, Vero, 48 h, read-out: Percent viral inhibition CHKV
[2] = test system: dengue virus (DENV); assay: microbe, parasite or virus in culture; conditions: Dengue virus, Vero, 120 h, read-out: Percent viral inhibition DENY
[3] = test system: Marburg virus (MARV); assay: organism not typed; conditions: Vero, 72 h, read-out: Percent viral inhibition MARV

CNC(=O)NCC1CCN(Cc2cc(Oc3cnc(N4CCN(C5CC(C(=O)O)C5)CC4)nc3)nc(-c3cc(Cl)cc(Cl)c3)c2)CC1 (stereo not drawn) [Example 221, 3-(4-(5-((6-(3,5-dichlorophenyl)-4-((4-((3-methylureido)methyl)piperidin-1-yl)methyl)pyridin-2-yl)oxy)pyrimidin-2-yl)piperazin-1-yl) cyclobutanecarboxylic acid] showed an inhibition at 1 µM [1] of 44.4%, an inhibition at 1 µM [2] of 25.9% and an inhibition at 1 µM [3] of 63.2%.
Compound COC(=O)NCC1CCN(Cc2cc(Oc3cnc(N4CCN(C(C)CCC(=O)O)CC4)nc3)nc(-c3cc(Cl)cc(Cl)c3)c2)CC1 (stereo not drawn) [Example 222, 4-(4-(5-((6-(3,5-dichlorophenyl)-4-((4-(((methoxycarbonyl)amino)methyl)piperidin-1-yl)methyl)pyridin-2-yl)oxy)pyrimidin-2-yl)piperazin-1-yl)pentanoic acid] has an inhibition at 1 µM [1] of 25%, an inhibition at 1 µM [2] of 17.6% and an inhibition at 1 µM [3] of 60%.
CN1CCN(c2ncc(Oc3cc(CN4CC[C@@H]5[C@H](CC4)[C@H]5CC(=O)O)cc(-c4cc(Cl)cc(Cl)c4)n3)cn2)CC1 [Example 224, 2-((1R,7S,8r)-4-((2-(3,5-dichloro-phenyl)-6-((2-(4-methylpiperazin-1-yl)pyrimidin-5-yl)oxy)pyridin-4-yl)methyl)-4-azabicyclo[5.1.0]octan-8-yl)acetic acid] gave an inhibition at 1 µM [1] of 33.1%, an inhibition at 1 µM [2] of 72% and an inhibition at 1 µM [3] of 52.3%.
With CN1CCN(c2ncc(Oc3cc(CN4CCC(OC(C)(C)C(=O)O)CC4)cc(-c4cc(Cl)cc(Cl)c4)n3)cn2)CC1 [Example 225, 2-((1-((2-(3,5-dichlorophenyl)-6-((2-(4-methylpiperazin-1-yl)pyrimidin-5-yl)oxy)pyridin-4-yl)methyl)piperidin-4-yl)oxy)-2-methylpropanoic acid] the inhibition at 1 µM [1] was 24.2%, the inhibition at 1 µM [2] was 33.3% and the inhibition at 1 µM [3] was 52.3%.
CN1CCN(c2ncc(Oc3cc(CN4CCC(CC(=O)O)CC4)cc(-c4cc(Cl)cc(Cl)c4)n3)cn2)CC(O)C1 (stereo not drawn) [Example 226, 2-(1-((2-(3,5-dichlorophenyl)-6-((2-(6-hydroxy-4-methyl-1,4-diazepan-1-yl)pyrimidin-5-yl)oxy)pyridin-4-yl)methyl)piperidin-4-yl)acetic acid] gave an inhibition at 1 µM [1] of 26.7%, an inhibition at 1 µM [2] of 58.9% and an inhibition at 1 µM [3] of 41.4%.
For CN(C)C1CCN(c2ncc(Oc3cc(CN4CCC(CC(=O)O)CC4)cc(-c4cc(Cl)cc(Cl)c4)n3)cn2)CC1 [Example 227, 2-(1-((2-(3,5-dichlorophenyl)-6-((2-(4-(dimethylamino)piperidin-1-yl)pyrimidin-5-yl)oxy)pyridin-4-yl)methyl)piperidin-4-yl)acetic acid], the inhibition at 1 µM [1] was 40.5%, the inhibition at 1 µM [2] was 54% and the inhibition at 1 µM [3] was 54.5%.
Work on CN1C2CC1CN(c1ncc(Oc3cc(CN4CCC(CC(=O)O)CC4)cc(-c4cc(Cl)cc(Cl)c4)n3)cn1)C2 [Example 228, 2-(1-((2-(3,5-dichlorophenyl)-6-((2-(6-methyl-3,6-diazabicyclo[3.1.l]heptan-3-yl)pyrimidin-5-yl)oxy)pyridin-4-yl)methyl)piperidin-4-yl)acetic acid] yielded an inhibition at 1 µM [1] of 17.3%, an inhibition at 1 µM [2] of 31.9% and an inhibition at 1 µM [3] of 36.2%.
For O=C(O)CC1CCN(Cc2cc(Oc3cnc(N4CCN(CC5(O)CC5)CC4)nc3)nc(-c3cc(Cl)cc(Cl)c3)c2)CC1 [Example 229, 2-(1-((2-(3,5-dichlorophenyl)-6-((2-(4-((1-hydroxycyclopropyl)methyl)piperazin-1-yl)pyrimidin-5-yl)oxy)pyridin-4-yl)methyl)piperidin-4-yl)acetic acid], the inhibition at 1 µM [1] was 43.2%, the inhibition at 1 µM [2] was 54.8% and the inhibition at 1 µM [3] was 23.7%.
For CN1C[C@@H]2C[C@H]1CN2c1ncc(Oc2cc(CN3CCC(CC(=O)O)CC3)cc(-c3cc(Cl)cc(Cl)c3)n2)cn1 [Example 231, 2-(1-((2-(3,5-dichlorophenyl)-6-((2-((1S,4S)-5-methyl-2,5-diazabicyclo[2.2.1]heptan-2-yl)pyrimidin-5-yl)oxy)pyridin-4-yl)methyl)piperidin-4-yl)acetic acid], the inhibition at 1 µM [1] was 25.8%, the inhibition at 1 µM [2] was 44.2% and the inhibition at 1 µM [3] was 66.6%.
With CCN1C[C@@H]2C[C@H]1CN2c1ncc(Oc2cc(CN3CCC(CC(=O)O)CC3)cc(-c3cc(Cl)cc(Cl)c3)n2)cn1 [Example 232, 2-(1-((2-(3,5-dichlorophenyl)-6-((2-((1S,4S)-5-ethyl-2,5-diazabicyclo[2.2.1]heptan-2-yl)pyrimidin-5-yl)oxy)pyridin-4-yl)methyl)piperidin-4-yl)acetic acid] the inhibition at 1 µM [1] was 37.1%, the inhibition at 1 µM [2] was 19.5% and the inhibition at 1 µM [3] was 43.4%.
For O=C(O)CC1CCN(Cc2cc(Oc3cnc(N4CCN(C5CC5)CC4)nc3)nc(-c3cc(Cl)cc(Cl)c3)c2)CC1 [Example 233, 2-(1-((2-((2-(4-cyclopropylpiperazin-1-yl)pyrimidin-5-yl)oxy)-6-(3,5-dichlorophenyl)pyridin-4-yl)methyl)piperidin-4-yl)acetic acid], the inhibition at 1 µM [1] was 16.3%, the inhibition at 1 µM [2] was 55.7% and the inhibition at 1 µM [3] was 57.1%.
In the case of CCN1CCN(c2ncc(Oc3cc(CN4CCC(CC(=O)O)CC4)cc(-c4cc(Cl)cc(Cl)c4)n3)cn2)CC1 [Example 234, 2-(1-((2-(3,5-dichlorophenyl)-6-((2-(4-ethylpiperazin-1-yl)pyrimidin-5-yl)oxy)pyridin-4-yl)methyl)piperidin-4-yl)acetic acid], the inhibition at 1 µM [1] is reported as 26.7%, the inhibition at 1 µM [2] is reported as 36.9% and the inhibition at 1 µM [3] is reported as 49.1%.
With CC(C)N1CCN(c2ncc(Oc3cc(CN4CCC(CC(=O)O)CC4)cc(-c4cc(Cl)cc(Cl)c4)n3)cn2)CC1 [Example 235, 2-(1-((2-(3,5-dichlorophenyl)-6-((2-(4-isopropylpiperazin-1-yl)pyrimidin-5-yl)oxy)pyridin-4-yl)methyl)piperidin-4-yl)acetic acid] the inhibition at 1 µM [1] was 27.4%, the inhibition at 1 µM [2] was 0% and the inhibition at 1 µM [3] was 69.8%.
O=C(O)CC1CCN(Cc2cc(Oc3cnc(N4CCN(CCF)CC4)nc3)nc(-c3cc(Cl)cc(Cl)c3)c2)CC1 [Example 236, 2-(1-((2-(3,5-dichlorophenyl)-6-((2-(4-(2-fluoroethyl)piperazin-1-yl)pyrimidin-5-yl)oxy)pyridin-4-yl)methyl)piperidin-4-yl)acetic acid] was tested, and the inhibition at 1 µM [1] was 39.8%, the inhibition at 1 µM [2] was 64.5% and the inhibition at 1 µM [3] was 68.5%.
With CC(O)CCN1CCN(c2ncc(Oc3cc(CN4CCC(CC(=O)O)CC4)cc(-c4cc(Cl)cc(Cl)c4)n3)cn2)CC1 (stereo not drawn) [Example 237, 2-(1-((2-(3,5-dichlorophenyl)-6-((2-(4-(3-hydroxybutyl)piperazin-1-yl)pyrimidin-5-yl)oxy)pyridin-4-yl)methyl)piperidin-4-yl)acetic acid] the inhibition at 1 µM [1] was 37%, the inhibition at 1 µM [2] was 52.1% and the inhibition at 1 µM [3] was 37.7%.
Compound CC(CCO)N1CCN(c2ncc(Oc3cc(CN4CCC(CC(=O)O)CC4)cc(-c4cc(Cl)cc(Cl)c4)n3)cn2)CC1 (stereo not drawn) [Example 238, 2-(1-((2-(3,5-dichlorophenyl)-6-((2-(4-(4-hydroxybutan-2-yl)piperazin-1-yl)pyrimidin-5-yl)oxy)pyridin-4-yl)methyl)piperidin-4-yl)acetic acid] has an inhibition at 1 µM [1] of 35.8%, an inhibition at 1 µM [2] of 66.1% and an inhibition at 1 µM [3] of 56.8%.
CC(CCN(C)C)N1CCN(c2ncc(Oc3cc(CN4CCC(CC(=O)O)CC4)cc(-c4cc(Cl)cc(Cl)c4)n3)cn2)CC1 (stereo not drawn) [Example 240, 2-(1-((2-(3,5-dichlorophenyl)-6-((2-(4-(4-(dimethylamino)butan-2-yl)piperazin-1-yl)pyrimidin-5-yl)oxy)pyridin-4-yl)methyl)piperidin-4-yl)acetic acid] gave an inhibition at 1 µM [1] of 28.5%, an inhibition at 1 µM [2] of 36.8% and an inhibition at 1 µM [3] of 67.4%.
In the case of CNC(=O)OCCN1CCN(c2ncc(Oc3cc(CN4CCC(CC(=O)O)CC4)cc(-c4cc(Cl)cc(Cl)c4)n3)cn2)CC1 [Example 241, 2-(1-((2-(3,5-dichlorophenyl)-6-((2-(4-(2-((methylcarbamoyl)oxy)ethyl)piperazin-1-yl)pyrimidin-5-yl)oxy)pyridin-4-yl)methyl)piperidin-4-yl)acetic acid], the inhibition at 1 µM [1] is reported as 32.4%, the inhibition at 1 µM [2] is reported as 43.4% and the inhibition at 1 µM [3] is reported as 73.1%.
Work on CS(=O)(=O)CCCN1CCN(c2ncc(Oc3cc(CN4CCC(CC(=O)O)CC4)cc(-c4cc(Cl)cc(Cl)c4)n3)cn2)CC1 [Example 242, 2-(1-((2-(3,5-dichlorophenyl)-6-((2-(4-(3-(methylsulfonyl)propyl)piperazin-1-yl)pyrimidin-5-yl)oxy)pyridin-4-yl)methyl)piperidin-4-yl)acetic acid] yielded an inhibition at 1 µM [1] of 31.9%, an inhibition at 1 µM [2] of 16.4% and an inhibition at 1 µM [3] of 55.5%.
CS(=O)(=O)CCCN1CCN(c2ccc(Oc3cc(CN4CCC(CC(=O)O)CC4)cc(-c4cc(Cl)cc(Cl)c4)n3)cn2)CC1 [Example 243, 2-(1-((2-(3,5-dichlorophenyl)-6-((6-(4-(3-(methylsulfonyl)propyl)piperazin-1-yl)pyridin-3-yl)oxy)pyridin-4-yl)methyl)piperidin-4-yl)acetic acid] showed an inhibition at 1 µM [1] of 14.6%, an inhibition at 1 µM [2] of 37.9% and an inhibition at 1 µM [3] of 46.8%.
Compound COCCN1CCN(c2ccc(Oc3cc(CN4CCC(CC(=O)O)CC4)cc(-c4cc(Cl)cc(Cl)c4)n3)cn2)CC1 [Example 244, 2-(1-((2-(3,5-dichlorophenyl)-6-((6-(4-(2-methoxyethyl)piperazin-1-yl)pyridin-3-yl)oxy)pyridin-4-yl)methyl)piperidin-4-yl)acetic acid] has an inhibition at 1 µM [1] of 6.34%, an inhibition at 1 µM [2] of 14% and an inhibition at 1 µM [3] of 61.4%.
In the case of COCCN1CCN(c2ncc(Oc3cc(CN4CCC(CNC(C)=O)CC4)cc(-c4cc(Cl)cc(Cl)c4)n3)cn2)CC1 [Example 245, N-((1-((2-(3,5-dichlorophenyl)-6-((2-(4-(2-methoxyethyl)piperazin-1-yl)pyrimidin-5-yl)oxy)pyridin-4-yl)methyl)piperidin-4-yl)methyl)acetamide], the inhibition at 1 µM [1] is reported as 24.1%, the inhibition at 1 µM [2] is reported as 53.3% and the inhibition at 1 µM [3] is reported as 53.9%.
